The values below come from ChEMBL document CHEMBL4804281, “STK4 inhibitors for treatment of hematologic malignancies” (2020).

In experiment [1] the target is Calcium/calmodulin-dependent protein kinase type II subunit beta (Homo sapiens) (UniProt Q13554). Nature of the experiment: Inhibition of CAMK2B in human NCI-H929 cells at 10 uM by mass spectroscopic analysis relative to control. The experiment is classed as cell-based.
Experiment [2] concerns the target T1, Mitogen-activated protein kinase 12 (Homo sapiens) (UniProt P53778).
T1 sequence (whole entry): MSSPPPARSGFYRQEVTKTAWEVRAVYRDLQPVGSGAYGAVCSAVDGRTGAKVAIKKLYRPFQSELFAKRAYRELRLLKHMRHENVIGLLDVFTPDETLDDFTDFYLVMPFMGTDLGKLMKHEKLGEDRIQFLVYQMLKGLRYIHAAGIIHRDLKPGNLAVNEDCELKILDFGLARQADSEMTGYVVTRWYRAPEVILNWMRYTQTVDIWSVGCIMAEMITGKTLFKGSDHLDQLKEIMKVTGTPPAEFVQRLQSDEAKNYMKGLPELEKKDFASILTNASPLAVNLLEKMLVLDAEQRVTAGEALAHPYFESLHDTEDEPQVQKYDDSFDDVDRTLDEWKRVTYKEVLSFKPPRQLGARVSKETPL
Briefly: Inhibition of P38gamma in human NCI-H929 cells at 10 uM by mass spectroscopic analysis relative to control. It counts as cell-based.

The target of experiment [3] is Putative phosphatidylinositol 4-kinase alpha-like protein P2 (Homo sapiens) (UniProt A4QPH2). Nature of the experiment: Inhibition of PI4KAP2 in human NCI-H929 cells at 10 uM by mass spectroscopic analysis relative to control. It counts as cell-based.
Experiment [4] addresses T2, Kinase suppressor of Ras 1 (Homo sapiens) (UniProt Q8IVT5).
T2 sequence (whole entry): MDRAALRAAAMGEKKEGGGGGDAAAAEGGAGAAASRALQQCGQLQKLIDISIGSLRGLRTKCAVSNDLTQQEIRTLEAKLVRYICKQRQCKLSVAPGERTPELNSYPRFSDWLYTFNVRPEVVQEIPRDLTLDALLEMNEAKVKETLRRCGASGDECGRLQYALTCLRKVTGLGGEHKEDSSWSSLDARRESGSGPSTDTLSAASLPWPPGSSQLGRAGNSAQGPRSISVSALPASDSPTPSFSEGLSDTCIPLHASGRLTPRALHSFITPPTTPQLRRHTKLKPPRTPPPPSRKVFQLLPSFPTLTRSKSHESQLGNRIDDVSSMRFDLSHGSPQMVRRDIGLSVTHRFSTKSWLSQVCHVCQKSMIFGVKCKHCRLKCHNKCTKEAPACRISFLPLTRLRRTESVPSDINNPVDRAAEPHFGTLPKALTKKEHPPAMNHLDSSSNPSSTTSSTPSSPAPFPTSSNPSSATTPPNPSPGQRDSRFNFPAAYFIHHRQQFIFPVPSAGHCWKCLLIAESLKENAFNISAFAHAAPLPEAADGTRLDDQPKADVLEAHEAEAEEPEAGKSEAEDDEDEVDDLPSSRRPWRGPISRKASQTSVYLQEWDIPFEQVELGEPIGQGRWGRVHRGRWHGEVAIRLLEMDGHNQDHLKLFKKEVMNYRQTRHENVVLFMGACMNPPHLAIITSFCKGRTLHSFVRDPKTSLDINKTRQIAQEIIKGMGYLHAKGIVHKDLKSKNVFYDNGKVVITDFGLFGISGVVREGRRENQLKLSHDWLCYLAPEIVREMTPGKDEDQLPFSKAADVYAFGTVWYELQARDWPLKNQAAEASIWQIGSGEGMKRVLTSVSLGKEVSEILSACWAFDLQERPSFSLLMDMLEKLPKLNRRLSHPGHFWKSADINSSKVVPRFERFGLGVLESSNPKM
Briefly: Inhibition of KSR1 in human NCI-H929 cells at 10 uM by mass spectroscopic analysis relative to control. It counts as cell-based.

Experiment [5] addresses Serine/threonine-protein kinase Nek6 (Homo sapiens) (UniProt Q9HC98). Briefly: Inhibition of NEK6 in human NCI-H929 cells at 10 uM by mass spectroscopic analysis relative to control. It counts as cell-based.
The target of experiment [6] is Mitogen-activated protein kinase kinase kinase kinase 4 (Homo sapiens) (UniProt O95819). Nature of the experiment: Inhibition of HGK in human NCI-H929 cells at 10 uM by mass spectroscopic analysis relative to control. The experiment is classed as cell-based.
Mitogen-activated protein kinase kinase kinase kinase 4 (Homo sapiens), sequence (O95819 2-1239 limits assumed): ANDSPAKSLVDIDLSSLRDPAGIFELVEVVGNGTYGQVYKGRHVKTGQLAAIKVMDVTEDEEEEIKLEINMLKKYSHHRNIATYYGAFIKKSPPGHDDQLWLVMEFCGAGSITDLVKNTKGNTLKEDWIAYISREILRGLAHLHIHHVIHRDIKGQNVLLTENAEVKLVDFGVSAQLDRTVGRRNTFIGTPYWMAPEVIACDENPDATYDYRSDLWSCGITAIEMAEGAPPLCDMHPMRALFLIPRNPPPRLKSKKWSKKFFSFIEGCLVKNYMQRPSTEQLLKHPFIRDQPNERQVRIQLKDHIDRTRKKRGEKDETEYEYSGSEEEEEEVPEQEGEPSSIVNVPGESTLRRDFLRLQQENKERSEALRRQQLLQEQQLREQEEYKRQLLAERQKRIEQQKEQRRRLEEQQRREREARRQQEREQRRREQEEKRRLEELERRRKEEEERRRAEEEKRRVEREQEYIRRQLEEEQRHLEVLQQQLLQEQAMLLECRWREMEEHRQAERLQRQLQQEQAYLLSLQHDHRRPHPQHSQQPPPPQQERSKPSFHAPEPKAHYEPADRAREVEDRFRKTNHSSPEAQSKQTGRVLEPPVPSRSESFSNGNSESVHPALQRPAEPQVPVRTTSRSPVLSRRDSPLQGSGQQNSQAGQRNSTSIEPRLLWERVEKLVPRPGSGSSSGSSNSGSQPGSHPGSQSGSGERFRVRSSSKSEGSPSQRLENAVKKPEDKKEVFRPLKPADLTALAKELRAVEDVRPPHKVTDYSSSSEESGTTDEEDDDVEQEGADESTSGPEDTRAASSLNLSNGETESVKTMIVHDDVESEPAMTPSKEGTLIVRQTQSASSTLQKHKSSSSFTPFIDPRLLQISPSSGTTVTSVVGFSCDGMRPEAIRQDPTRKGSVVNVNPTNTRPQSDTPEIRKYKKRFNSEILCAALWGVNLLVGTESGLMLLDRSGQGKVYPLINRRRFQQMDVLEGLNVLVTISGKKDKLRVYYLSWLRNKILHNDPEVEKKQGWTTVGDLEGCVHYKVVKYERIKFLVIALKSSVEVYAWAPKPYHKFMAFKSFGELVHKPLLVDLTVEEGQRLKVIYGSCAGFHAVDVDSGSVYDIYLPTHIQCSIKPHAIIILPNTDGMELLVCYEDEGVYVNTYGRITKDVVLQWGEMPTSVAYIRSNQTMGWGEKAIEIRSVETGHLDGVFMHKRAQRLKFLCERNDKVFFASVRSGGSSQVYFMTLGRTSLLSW
Experiment [7] addresses Tyrosine-protein kinase Fyn (Homo sapiens) (UniProt P06241). Nature of the experiment: Inhibition of FYN in human NCI-H929 cells at 10 uM by mass spectroscopic analysis relative to control. The experiment is classed as cell-based.
Experiment [8] deals with Proto-oncogene tyrosine-protein kinase Src (Homo sapiens) (UniProt P12931). Briefly: Inhibition of SRC in human NCI-H929 cells at 10 uM by mass spectroscopic analysis relative to control. The experiment is classed as cell-based.
Proto-oncogene tyrosine-protein kinase Src (Homo sapiens), sequence (P12931 2-536 limits assumed): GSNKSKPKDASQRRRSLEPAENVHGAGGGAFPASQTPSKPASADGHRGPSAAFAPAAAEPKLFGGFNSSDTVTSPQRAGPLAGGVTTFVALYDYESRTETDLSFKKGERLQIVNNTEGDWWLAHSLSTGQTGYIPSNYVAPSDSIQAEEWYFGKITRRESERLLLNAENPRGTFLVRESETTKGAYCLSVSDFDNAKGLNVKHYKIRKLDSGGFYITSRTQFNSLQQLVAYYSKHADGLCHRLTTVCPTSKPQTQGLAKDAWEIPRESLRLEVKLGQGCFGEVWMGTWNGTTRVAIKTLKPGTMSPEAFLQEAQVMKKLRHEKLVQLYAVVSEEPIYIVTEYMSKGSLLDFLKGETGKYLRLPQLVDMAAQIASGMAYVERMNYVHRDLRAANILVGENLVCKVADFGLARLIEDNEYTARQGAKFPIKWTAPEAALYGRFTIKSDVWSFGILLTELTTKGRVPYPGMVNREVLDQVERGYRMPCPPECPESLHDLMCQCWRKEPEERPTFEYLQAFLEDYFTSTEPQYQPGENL
Experiment [9] has as its target Tyrosine-protein kinase Yes (Homo sapiens) (UniProt P07947). Nature of the experiment: Inhibition of YES in human NCI-H929 cells at 10 uM by mass spectroscopic analysis relative to control. It counts as cell-based.
Experiment [10] addresses MAP kinase-activated protein kinase 2 (Homo sapiens) (UniProt P49137). Nature of the experiment: Inhibition of MAPKAPK2 in human NCI-H929 cells at 10 uM by mass spectroscopic analysis relative to control. The experiment is classed as cell-based.
The target of experiment [11] is Serine/threonine-protein kinase WNK3 (Homo sapiens) (UniProt Q9BYP7). Briefly: Inhibition of WNK3 in human NCI-H929 cells at 10 uM by mass spectroscopic analysis relative to control. It counts as cell-based.
Experiment [12] deals with MAP kinase-activated protein kinase 3 (Homo sapiens) (UniProt Q16644). Nature of the experiment: Inhibition of MAPKAPK3 in human NCI-H929 cells at 10 uM by mass spectroscopic analysis relative to control. It counts as cell-based.
Experiment [13] deals with Serine/threonine-protein kinase WNK1 (Homo sapiens) (UniProt Q9H4A3). Briefly: Inhibition of WNK1 in human NCI-H929 cells at 10 uM by mass spectroscopic analysis relative to control. The experiment is classed as cell-based.
Experiment [14] has as its target Mitogen-activated protein kinase 8 (Homo sapiens) (UniProt P45983). Nature of the experiment: Inhibition of JNK1 in human NCI-H929 cells at 10 uM by mass spectroscopic analysis relative to control. It counts as cell-based.
The target of experiment [15] is PRKCI, protein kinase C iota (Homo sapiens) (UniProt P41743). Briefly: Inhibition of PKCi in human NCI-H929 cells at 10 uM by mass spectroscopic analysis relative to control.
PRKCI, protein kinase C iota (Homo sapiens), sequence (P41743 whole entry, looked up): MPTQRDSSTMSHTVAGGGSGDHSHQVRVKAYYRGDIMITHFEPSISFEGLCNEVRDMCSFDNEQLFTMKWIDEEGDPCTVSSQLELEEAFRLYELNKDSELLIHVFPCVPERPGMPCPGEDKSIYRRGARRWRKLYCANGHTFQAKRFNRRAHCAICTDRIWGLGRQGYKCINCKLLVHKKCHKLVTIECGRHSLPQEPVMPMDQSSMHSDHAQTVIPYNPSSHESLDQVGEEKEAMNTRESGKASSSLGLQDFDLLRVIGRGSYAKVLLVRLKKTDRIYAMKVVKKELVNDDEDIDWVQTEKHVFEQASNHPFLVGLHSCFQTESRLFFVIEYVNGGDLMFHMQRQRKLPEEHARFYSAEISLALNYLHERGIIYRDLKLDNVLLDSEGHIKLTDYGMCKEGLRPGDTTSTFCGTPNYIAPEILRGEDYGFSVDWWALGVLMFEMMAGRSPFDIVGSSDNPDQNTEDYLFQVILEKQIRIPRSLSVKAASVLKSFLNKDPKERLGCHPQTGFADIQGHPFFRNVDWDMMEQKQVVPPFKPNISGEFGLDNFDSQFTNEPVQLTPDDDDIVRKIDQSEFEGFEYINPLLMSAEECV
The target in experiment [16] is T3, Mitogen-activated protein kinase 13 (Homo sapiens) (UniProt O15264).
T3 sequence (whole entry): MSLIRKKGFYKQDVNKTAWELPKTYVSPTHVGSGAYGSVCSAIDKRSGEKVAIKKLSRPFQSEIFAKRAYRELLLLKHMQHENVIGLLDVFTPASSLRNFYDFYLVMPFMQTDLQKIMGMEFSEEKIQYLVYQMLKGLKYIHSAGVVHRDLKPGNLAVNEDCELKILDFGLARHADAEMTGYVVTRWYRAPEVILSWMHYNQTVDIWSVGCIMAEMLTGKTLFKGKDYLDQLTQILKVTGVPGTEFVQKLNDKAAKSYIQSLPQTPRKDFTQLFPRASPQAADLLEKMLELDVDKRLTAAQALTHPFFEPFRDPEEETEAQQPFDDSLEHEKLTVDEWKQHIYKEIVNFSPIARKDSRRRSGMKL
Briefly: Inhibition of P38delta in human NCI-H929 cells at 10 uM by mass spectroscopic analysis relative to control. The experiment is classed as cell-based.

Tyrosine-protein kinase Yes (Homo sapiens), sequence (P07947 2-543 limits assumed): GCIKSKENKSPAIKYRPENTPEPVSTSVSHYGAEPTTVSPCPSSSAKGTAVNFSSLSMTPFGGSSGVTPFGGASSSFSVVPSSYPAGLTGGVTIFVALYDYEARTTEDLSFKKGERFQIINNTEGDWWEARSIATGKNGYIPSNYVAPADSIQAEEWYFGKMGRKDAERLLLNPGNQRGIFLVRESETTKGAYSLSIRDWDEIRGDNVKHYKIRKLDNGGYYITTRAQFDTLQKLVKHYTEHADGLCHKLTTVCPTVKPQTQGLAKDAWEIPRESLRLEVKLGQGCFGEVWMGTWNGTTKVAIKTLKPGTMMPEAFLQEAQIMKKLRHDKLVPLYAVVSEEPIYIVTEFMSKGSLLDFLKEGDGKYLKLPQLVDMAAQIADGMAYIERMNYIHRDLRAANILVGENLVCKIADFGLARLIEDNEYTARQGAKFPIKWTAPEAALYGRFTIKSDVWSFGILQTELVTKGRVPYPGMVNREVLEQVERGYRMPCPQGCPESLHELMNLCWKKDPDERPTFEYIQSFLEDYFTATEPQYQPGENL
Tyrosine-protein kinase Fyn (Homo sapiens), sequence (P06241 2-537 limits assumed): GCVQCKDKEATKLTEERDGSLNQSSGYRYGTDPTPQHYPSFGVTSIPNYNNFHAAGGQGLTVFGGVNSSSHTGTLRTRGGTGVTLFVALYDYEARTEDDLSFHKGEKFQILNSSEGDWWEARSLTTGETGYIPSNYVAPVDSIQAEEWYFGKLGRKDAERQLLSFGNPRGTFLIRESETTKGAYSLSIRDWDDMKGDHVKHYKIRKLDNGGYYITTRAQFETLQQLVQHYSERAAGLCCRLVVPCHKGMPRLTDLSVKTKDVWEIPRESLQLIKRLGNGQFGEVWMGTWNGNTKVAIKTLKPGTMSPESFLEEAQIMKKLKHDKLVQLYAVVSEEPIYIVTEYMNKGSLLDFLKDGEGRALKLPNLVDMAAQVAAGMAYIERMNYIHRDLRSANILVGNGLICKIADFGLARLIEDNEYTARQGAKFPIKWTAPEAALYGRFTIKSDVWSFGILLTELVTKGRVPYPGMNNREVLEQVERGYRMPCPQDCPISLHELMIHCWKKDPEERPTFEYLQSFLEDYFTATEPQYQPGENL
Mitogen-activated protein kinase 8 (Homo sapiens), sequence (P45983 whole entry): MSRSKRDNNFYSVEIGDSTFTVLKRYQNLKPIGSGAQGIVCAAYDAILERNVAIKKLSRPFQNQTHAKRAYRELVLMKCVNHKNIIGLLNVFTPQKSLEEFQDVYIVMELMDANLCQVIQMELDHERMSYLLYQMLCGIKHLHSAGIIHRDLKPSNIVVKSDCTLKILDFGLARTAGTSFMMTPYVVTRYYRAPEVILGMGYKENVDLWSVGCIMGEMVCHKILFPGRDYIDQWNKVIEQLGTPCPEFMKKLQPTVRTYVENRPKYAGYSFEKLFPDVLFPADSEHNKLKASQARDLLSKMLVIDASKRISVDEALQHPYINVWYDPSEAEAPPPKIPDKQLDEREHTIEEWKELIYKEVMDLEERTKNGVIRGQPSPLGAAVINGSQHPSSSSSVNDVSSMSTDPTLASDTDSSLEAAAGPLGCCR
Calcium/calmodulin-dependent protein kinase type II subunit beta (Homo sapiens), sequence (Q13554 whole entry): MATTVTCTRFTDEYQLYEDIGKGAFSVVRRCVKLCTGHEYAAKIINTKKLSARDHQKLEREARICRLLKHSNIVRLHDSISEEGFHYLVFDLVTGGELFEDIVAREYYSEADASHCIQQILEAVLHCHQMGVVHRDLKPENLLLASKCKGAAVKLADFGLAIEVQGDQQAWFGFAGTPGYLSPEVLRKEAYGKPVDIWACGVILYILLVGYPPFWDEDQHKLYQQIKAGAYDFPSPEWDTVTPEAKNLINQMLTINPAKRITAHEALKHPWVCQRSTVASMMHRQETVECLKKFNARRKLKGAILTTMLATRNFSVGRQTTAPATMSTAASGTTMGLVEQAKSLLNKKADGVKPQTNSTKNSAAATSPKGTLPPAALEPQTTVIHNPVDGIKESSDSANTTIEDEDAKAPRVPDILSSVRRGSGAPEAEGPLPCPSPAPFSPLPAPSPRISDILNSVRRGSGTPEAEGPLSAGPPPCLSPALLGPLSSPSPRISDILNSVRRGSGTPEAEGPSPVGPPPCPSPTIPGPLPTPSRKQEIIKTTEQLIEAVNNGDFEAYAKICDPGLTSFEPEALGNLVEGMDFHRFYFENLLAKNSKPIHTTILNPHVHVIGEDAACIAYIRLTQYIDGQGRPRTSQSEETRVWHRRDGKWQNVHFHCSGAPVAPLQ
Serine/threonine-protein kinase Nek6 (Homo sapiens), sequence (Q9HC98 whole entry): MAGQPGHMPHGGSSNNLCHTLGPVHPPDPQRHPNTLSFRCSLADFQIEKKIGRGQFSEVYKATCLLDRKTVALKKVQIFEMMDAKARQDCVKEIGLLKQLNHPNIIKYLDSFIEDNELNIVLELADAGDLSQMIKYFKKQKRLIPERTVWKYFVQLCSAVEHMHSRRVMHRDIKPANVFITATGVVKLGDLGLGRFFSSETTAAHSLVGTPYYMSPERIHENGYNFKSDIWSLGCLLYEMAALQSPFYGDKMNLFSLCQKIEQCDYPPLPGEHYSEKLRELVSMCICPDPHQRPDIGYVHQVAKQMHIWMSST

Consider `Nc1ncc(-c2cccc([N+](=O)[O-])c2F)cc1-c1ccc2c(c1)CCNC2=O`, for which the inhibition (as a rule, the share of the control response that was lost under treatment) is 0% in experiment [1]; 0% in [2]; 0% in experiment [3]; 0% in experiment [4]; 0% in [5]; greater than 90% in [6]. Moreover, the inhibition in [7] is 0%; in experiment [8], 0%; in experiment [9] it was 0%; in [10], 0%; in experiment [11], greater than 100%; in experiment [12], 0%. For the same molecule, the inhibition is greater than 100% in experiment [13], 0% in experiment [14], 0% in experiment [15] and 0% in experiment [16].
For `Nc1ncc(-c2ccc(NS(=O)(=O)C3CC3)cc2OC2CCCCC2)cc1-c1ccc2c(c1)CCNC2=O`, the inhibition was 0% in experiment [1]; 0% in experiment [2]; 0% in experiment [3]; 0% in experiment [4]; 0% in [5]; greater than 90% in [6]. Moreover, the inhibition in experiment [7], in [8], in [9], in [10], in [11] and in experiment [12] was 0% throughout. Moreover, the inhibition in experiment [13], in [14], in experiment [15] and in [16] was 0% each time.
For the molecule `CN(C1CC1)S(=O)(=O)c1ccc(-c2cnc(N)c(-c3ccc4c(c3)CCNC4=O)c2)c(F)c1`, the inhibition was 0% in experiment [1]; 0% in [2]; 0% in experiment [3]; 0% in [4]; 0% in experiment [5]; greater than 90% in [6]. The inhibition in experiment [7], in [8], in experiment [9], in experiment [10], in experiment [11] and in experiment [12] was 0% each time. The inhibition in experiment [13], in experiment [14], in experiment [15] and in experiment [16] was 0% throughout.
For `Nc1ncc(-c2ccc(NS(=O)(=O)C3CC3)cc2F)cc1-c1ccc2c(c1)CCNC2=O`, the inhibition in [1] is 0%; in [2] it was 0%; in [3], 0%; in experiment [4], 0%; in experiment [5], 0%; in experiment [6] it was greater than 90%. Moreover, the inhibition in experiment [7], in experiment [8], in experiment [9], in experiment [10], in experiment [11] and in experiment [12] was 0% in each case. Also, the inhibition in experiment [13], in experiment [14], in [15] and in [16] was 0% each time.
Consider `Nc1ncc(-c2cccc3ncsc23)cc1-c1ccc2c(c1)CCNC2=O`, for which the inhibition in experiment [1] is 0%; in [2], 0%; in experiment [3] it was 0%; in experiment [4], 0%; in experiment [5], 0%; in [6], greater than 90%. Also, the inhibition in experiment [7], in experiment [8], in [9], in [10], in [11] and in [12] was 0% throughout. Further, the inhibition in [13], in experiment [14], in [15] and in experiment [16] was 0% each time.
Consider `COc1cc(NS(=O)(=O)C2CC2)ccc1-c1cnc(N)c(-c2ccc3c(c2)CCNC3=O)c1`, for which the inhibition in experiment [1] is 0%; in [2], 0%; in [3], 0%; in experiment [4], 0%; in experiment [5], 0%; in experiment [6], greater than 90%. In addition, the inhibition in experiment [7] was 0%; in [8], 0%; in experiment [9], greater than 90%; in experiment [10], 0%; in [11], 0%; in [12] it was 0%. In addition, the inhibition in experiment [13], in experiment [14], in experiment [15] and in [16] was 0% throughout.
